Data on two compounds can be found in EP1143968B9 (priority 1999, dated 2000).

SMILES strings stand for the structures. Read-outs that look alike come from different tables or passages of the source.

One series deals with melanoma/M14. As to the kind of experiment: cells. It counts as cell-based. Here is the method:
(§1) In studies performed in support of the invention, the in vitro cytotoxicity of 7-hexanoyl taxol was compared to paclitaxel. As described in Example 1, LC50 values, which signify the concentration of drug at which 50% of the cells are killed, were determined in five cell lines.
(§2) A suspension of each cell line which was diluted according to the particular cell type and the expected target cell density (5,000-40,000 cells per well based on cell growth characteristics) was added by pipet (100 µL) into a 96-well microtiter plate. The cells were allowed a pre-incubation period of 24 hours at 37°C for stabilization. At the end of the pre-incubation period (T0), dilutions of 7-hexanoyl taxol or paclitaxel were added in 100 µL aliquots to the microtiter plate wells. The cells were incubated in the presence of the drug for 48 hours under a 5% CO2 atmosphere at 100% humidity. The cells were assayed using the sulforhodamine B assay. A plate reader was used to read the optical densities.
(§3) The LC50 values were taken as the concentration of compound where 100 x (T-T0)/T0 = -50.

Series [1] relates to non-small cell lung cancer/NCI H226. The series can be described thus: cells. It counts as cell-based. Here is the method: as §1, §2, §3
The next series deals with ovarian cancer/OVCAR-5. As to the kind of experiment: cells. It is filed as cell-based. Here is the method:
as §1, §2, §3

For another series, the system named is melanoma/SK-MEL-2. As to the kind of experiment: cells. It is filed as cell-based. How it is done: as §1, §2, §3
In the next series the test system is colon cancer/HT 29. The series can be described thus: cells. It counts as cell-based. Here is the method: as §1, §2, §3
A short description of series [2]: Relative water solubility by reverse phase HPLC. The note with it: for retention time: reverse phase column, silica with diphenylmethyl functionalities, mobile phase acetonitrile/water, longer retention = less water soluble. Here is the method: The water solubility of 7-hexanoyl taxol relative to paclitaxel was determined via HPLC analysis using a reverse phase column and illustrations of the HPLC traces are shown in Fig. 2. The column employed was made of silica with the hydrophilic Si-OH functionalities converted to hydrophobic diphenylmethyl functionalities. The mobile phase was acetonitrile/water. In this column, a hydrophilic or water soluble test material is retained primarily in the aqueous mobile phase, resulting in the water soluble compounds eluting from the column earlier than hydrophobic or water insoluble compounds.

In series [3] the test system is coronary arteries of pigs. As to the kind of experiment: In vivo testing of drug-loaded polymer stents in pig coronary arteries. The note with it: for % Intimal Growth / % Diameter Stenosis: metal support/polymer segments stent, 1500 µg drug; for % Intimal Growth / % Diameter Stenosis / reduction in percent stenosis compared to the stent containing paclitaxel: 28 days; for % Diameter Stenosis: morphometric analysis; for reduction in percent stenosis compared to the stent containing paclitaxel: pigs. How it is done: In studies performed in support of the invention, polymeric materials containing 7-hexanoyl taxol were prepared from an acrylate/methyacrylate monomer mixture and polymerized using a methacrylate crosslinker, as described in Example 2. 7-hexanoyl taxol was incorporated into the polymer by contacting the polymer with a concentrated solution of the 7-hexanoyl taxol in a suitable organic solvent. Such polymeric materials, and polymeric materials similarly formed but with paclitaxel rather than 7-hexanoyl taxol, were used in combination with a support stent, as illustrated in Fig. 3C. The test and control stents were placed in the coronary arteries of pigs, as described in Example 3, and were left in vivo for 28 days. A metal stent not carrying a polymeric material was also placed into an-artery. At the time of insertion of the test and control stents, the coronary artery was characterized using a computer-based coronary angiography analysis system (Umans, V.A., et al., JACC 21(6):1382-1390, (1993)). Boundaries of a selected coronary artery segment were detected automatically from optically magnified and video-digitized regions of interest. The catheter used for insertion of the stents was used as a scaling device to determine the dimensions of the artery at the site of implantation. The original vessel diameter at the time of implantation was determined.
After the 28 day test period, the arteries were then explanted from the pig and pressure fixed for morphometric analysis. […] The percent stenosis was taken as one minus the stented vessel's minimum lumen diameter divided by the diameter of an unstented reference vessel time one-hundred. The percent intimal growth was also determined from the following equation: 1-[(stented vessel's minimum lumenal diameter)/(diameter of stented portion prior to stent placement)]*100. The balloon to artery ratio was also determined as a measure of the degree of distension of the vessel by the balloon.
In another study in support of the invention, stents were prepared as described in Examples 2 and 3. The polymeric materials carried either 7-hexanoyl taxol, paclitaxel or 7-xylosyltaxol. […] The stents were placed in coronary arteries of pigs, according to the procedure described above. After the test period, the percent diameter stenosis and neointimal thickness of the arteries were determined. The percentage of diameter stenosis was determined by two procedures, via quantative coronary angiography (QCA) and via morphometric evaluation of the vessels. The later procedure is described in Example 3. The former procedure, QCA, was performed according to the procedure of Umans, et al. described above, with lumen dimensions determined prior to explanting the vessels for morphometric analysis.
A polymer sleeve, prepared as described in Example 2, was placed about a metal, corrugated stent. The polymer sleeve contained 1500 µg of 7-hexanoyl taxol.
The two-drug loaded stents and two control metal stents with no polymer sleeve were placed into the coronary arteries of healthy Domestic Farm Swine pigs (Pork Power, Inc.) by conventional techniques using a commercially available catheter (Advanced Cardiovascular Systems). The stents were imaged during and after the insertion procedure to ensure proper placement using conventional angiographic imaging techniques. The metal control stents were placed in two different pigs, in one pig the stent was positioned in the left anterior descending artery and in the other pig in the right coronary artery. The comparative control stent containing paclitaxel was placed in one animal in the right coronary artery. The test stents containing 7-hexanoyl taxol were placed in two pigs, one stent in the right coronary artery and the other stent in the other pig in the left circumflex artery.

[4] abbreviates: Table 3 study, stents in coronary arteries of pigs.

Regarding `CCCCCC(=O)OC1CC2OCC2(OC(C)=O)C2C(OC(=O)c3ccccc3)C3(O)CC(OC(=O)C(O)C(NC(=O)c4ccccc4)c4ccccc4)C(C)=C(C(OC(C)=O)C(=O)C12C)C3(C)C` (stereo not drawn) [7-hexanoyl taxol], the CC50 in the series on melanoma/M14 (melanoma/M14, 48 hours with drug, read-out: LC50 (the source's name)) is 1.1 µM; in series [1] (non-small cell lung cancer/NCI H226, 48 hours with drug, read-out: LC50 (the source's name)), more than 100 µM; in the series with ovarian cancer/OVCAR-5 (ovarian cancer/OVCAR-5, 48 hours with drug, read-out: LC50 (the source's name)), 50 µM; in the series with melanoma/SK-MEL-2 (melanoma/SK-MEL-2, 48 hours with drug, read-out: LC50 (the source's name)), more than 100 µM; in the series on colon cancer/HT 29 (colon cancer/HT 29, 48 hours with drug, concentration at which 50% of the cells are killed, read-out: LC50 (the source's name)) it was 30 µM. Moreover, in series [2] (from the hydrophobic shift of HPLC retention time), the “water solubility relative to paclitaxel” value is recorded as “less water soluble than paclitaxel”. The compound also gave a retention time in series [2] of 30.9 min. Further, in series [3] (setting [4]), the “intimal thickening compared to paclitaxel” value is given as “less”. Further, the “percent stenosis compared to paclitaxel” value in series [3] (setting [4]) was “lower”. The “percent diameter stenosis compared to the water-soluble derivative, 7-xylosyltaxol” value in series [3] (Table 3 study, stents in coronary arteries of pigs, QCA and morphometric evaluation) is given as “considerably lower”. Further, the “% Intimal Growth” value in series [3] (left circumflex artery) is 2.3%; in series [3] (right coronary artery), -7.1%. The “% Diameter Stenosis” value in series [3] (left circumflex artery) is 16%; in series [3] (right coronary artery), 4%. Also, the “reduction in percent stenosis compared to the stent containing paclitaxel” value is “two-fold” in series [3] (one case (of the two stents with 7-hexanoyl taxol)) and approximately 8 fold in series [3] (the other case (of the two stents with 7-hexanoyl taxol)).
As for `CC(=O)O[C@H]1C(=O)[C@@]2(C)[C@H]([C@H](OC(=O)c3ccccc3)[C@]3(O)C[C@H](OC(=O)[C@H](O)[C@@H](NC(=O)c4ccccc4)c4ccccc4)C(C)=C1C3(C)C)[C@]1(OC(C)=O)CO[C@@H]1C[C@@H]2O` [Paclitaxel, reference compound], the CC50 with melanoma/M14 (48 h, read-out: LC50) was 100 µM; in series [1] (Homo sapiens, NCI-H226, 48 h, read-out: LC50), 70 µM; with ovarian cancer/OVCAR-5 (Homo sapiens, OVCAR-5, 48 h, read-out: LC50), more than 100 µM; in the series on melanoma/SK-MEL-2 (Homo sapiens, SK-MEL-2, 48 h, read-out: LC50), 100 µM; in the series on colon cancer/HT 29 (Homo sapiens, HT-29, 48 h, read-out: LC50), 30 µM. Further, the retention time in series [2] was determined as 18.5 min. The “% Intimal Growth” value in series [3] (right coronary artery) amounted to 29.5%. Also, the “% Diameter Stenosis” value in series [3] (right coronary artery) is 34%.
